Measured values as given in the supplement of paper PMC10307832.

Legend:
Assay in all cases: relative viability (nuclei count vs DMSO), 5 days (fraction); higher = more cells survive
Daporinad + Crizotinib = compound: O=C(/C=C/c1cccnc1)NCCCCC1CCN(C(=O)c2ccccc2)CC1 [Daporinad] + C[C@@H](Oc1cc(-c2cnn(C3CCNCC3)c2)cnc1N)c1c(Cl)ccc(F)c1Cl [Crizotinib] (partner 1 µM)
In short: (§1)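 Dosing by pin tool came one day after lung cancer cell lines were seeded in 1536-well plates, using either one drug or a fixed anchor-drug dose plus five library-drug doses (not always all listed) in √10 steps. After 5 days, nuclei were counted on 4× images. Relative viability is treated-well nuclei count divided by vehicle-well nuclei count, and values are medians of duplicate plates.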

Daporinad + Pictilisib = compound: O=C(/C=C/c1cccnc1)NCCCCC1CCN(C(=O)c2ccccc2)CC1 [Daporinad] + CS(=O)(=O)N1CCN(Cc2cc3nc(-c4cccc5[nH]ncc45)nc(N4CCOCC4)c3s2)CC1 [Pictilisib] (partner 1 µM)
In short: as §1

Daporinad + Luminespib = compound: O=C(/C=C/c1cccnc1)NCCCCC1CCN(C(=O)c2ccccc2)CC1 [Daporinad] + CCNC(=O)c1noc(-c2cc(C(C)C)c(O)cc2O)c1-c1ccc(CN2CCOCC2)cc1 [Luminespib] (partner 0.01 µM)
In short: as §1

Daporinad + Linsitinib = compound: O=C(/C=C/c1cccnc1)NCCCCC1CCN(C(=O)c2ccccc2)CC1 [Daporinad] + C[C@]1(O)C[C@@H](c2nc(-c3ccc4ccc(-c5ccccc5)nc4c3)c3c(N)nccn32)C1 [Linsitinib] (partner 1 µM)
In short: as §1

Daporinad + Foretinib = compound: O=C(/C=C/c1cccnc1)NCCCCC1CCN(C(=O)c2ccccc2)CC1 [Daporinad] + COc1cc2c(Oc3ccc(NC(=O)C4(C(=O)Nc5ccc(F)cc5)CC4)cc3F)ccnc2cc1OCCCN1CCOCC1 [Foretinib] (partner 0.25 µM)
In short: as §1

UMC-11
relative viability (Daporinad + Crizotinib; first compound 0.0005 µM): 0.672 | relative viability (Daporinad + Crizotinib; first compound 0.001581 µM): 0.641 | relative viability (Daporinad + Crizotinib; first compound 0.005 µM): 0.852 | relative viability (Daporinad + Crizotinib; first compound 0.01581 µM): 0.656 | relative viability (Daporinad + Pictilisib; first compound 0.0005 µM): 0.908 | relative viability (Daporinad + Pictilisib; first compound 0.001581 µM): 0.668 | relative viability (Daporinad + Pictilisib; first compound 0.005 µM): 0.928 | relative viability (Daporinad + Pictilisib; first compound 0.01581 µM): 0.993 | relative viability (Daporinad + Luminespib; first compound 0.0005 µM): 1.09 | relative viability (Daporinad + Luminespib; first compound 0.001581 µM): 1.04 | relative viability (Daporinad + Luminespib; first compound 0.005 µM): 1.26 | relative viability (Daporinad + Luminespib; first compound 0.01581 µM): 1.16 | relative viability (Daporinad + Linsitinib; first compound 0.0005 µM): 1.02 | relative viability (Daporinad + Linsitinib; first compound 0.001581 µM): 0.975 | relative viability (Daporinad + Linsitinib; first compound 0.005 µM): 1.1 | relative viability (Daporinad + Linsitinib; first compound 0.01581 µM): 1.03 | relative viability (Daporinad + Foretinib; first compound 0.0005 µM): 1.11 | relative viability (Daporinad + Foretinib; first compound 0.001581 µM): 1.05 | relative viability (Daporinad + Foretinib; first compound 0.005 µM): 1.34 | relative viability (Daporinad + Foretinib; first compound 0.01581 µM): 1.22
